Experimental data published in article PMC3991565 (Science (New York, N.Y.), 2014).

Assays:
human mGlu1 receptor = human mGlu1 receptor (Homo sapiens, UniProt Q13255); assay: FITM binding affinity at mGlu1
mGlu5 = mGlu5 (Homo sapiens, UniProt P41594); assay: FITM selectivity for mGlu1 over mGlu5; format: cell-based; settings: mGlu1 versus mGlu5, Fig. S12
[1] = molecular target: wild-type (WT) full-length human mGlu1 receptor (Homo sapiens, UniProt Q13255); assay: FITM-mediated antagonism of glutamate at wild-type full-length receptor; format: cell-based; settings: WT full-length human mGlu1, versus glutamate
mGlu1 [2] = settings: mGlu1 NAM potency of FITM and analogs used for docking; cited from earlier work
mGlu1 [3] = assay: potency; format: cell-based; settings: relative to FITM; ref 9 values

human mGlu1 receptor, sequence (Q13255 581-860): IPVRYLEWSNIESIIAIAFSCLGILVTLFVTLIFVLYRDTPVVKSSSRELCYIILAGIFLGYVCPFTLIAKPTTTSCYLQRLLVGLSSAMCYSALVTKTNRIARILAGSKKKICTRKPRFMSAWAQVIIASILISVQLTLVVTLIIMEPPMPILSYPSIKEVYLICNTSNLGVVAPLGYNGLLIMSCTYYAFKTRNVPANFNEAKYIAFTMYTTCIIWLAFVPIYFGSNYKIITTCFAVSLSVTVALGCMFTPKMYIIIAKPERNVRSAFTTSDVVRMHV
mGlu5, sequence (P41594 21-1212): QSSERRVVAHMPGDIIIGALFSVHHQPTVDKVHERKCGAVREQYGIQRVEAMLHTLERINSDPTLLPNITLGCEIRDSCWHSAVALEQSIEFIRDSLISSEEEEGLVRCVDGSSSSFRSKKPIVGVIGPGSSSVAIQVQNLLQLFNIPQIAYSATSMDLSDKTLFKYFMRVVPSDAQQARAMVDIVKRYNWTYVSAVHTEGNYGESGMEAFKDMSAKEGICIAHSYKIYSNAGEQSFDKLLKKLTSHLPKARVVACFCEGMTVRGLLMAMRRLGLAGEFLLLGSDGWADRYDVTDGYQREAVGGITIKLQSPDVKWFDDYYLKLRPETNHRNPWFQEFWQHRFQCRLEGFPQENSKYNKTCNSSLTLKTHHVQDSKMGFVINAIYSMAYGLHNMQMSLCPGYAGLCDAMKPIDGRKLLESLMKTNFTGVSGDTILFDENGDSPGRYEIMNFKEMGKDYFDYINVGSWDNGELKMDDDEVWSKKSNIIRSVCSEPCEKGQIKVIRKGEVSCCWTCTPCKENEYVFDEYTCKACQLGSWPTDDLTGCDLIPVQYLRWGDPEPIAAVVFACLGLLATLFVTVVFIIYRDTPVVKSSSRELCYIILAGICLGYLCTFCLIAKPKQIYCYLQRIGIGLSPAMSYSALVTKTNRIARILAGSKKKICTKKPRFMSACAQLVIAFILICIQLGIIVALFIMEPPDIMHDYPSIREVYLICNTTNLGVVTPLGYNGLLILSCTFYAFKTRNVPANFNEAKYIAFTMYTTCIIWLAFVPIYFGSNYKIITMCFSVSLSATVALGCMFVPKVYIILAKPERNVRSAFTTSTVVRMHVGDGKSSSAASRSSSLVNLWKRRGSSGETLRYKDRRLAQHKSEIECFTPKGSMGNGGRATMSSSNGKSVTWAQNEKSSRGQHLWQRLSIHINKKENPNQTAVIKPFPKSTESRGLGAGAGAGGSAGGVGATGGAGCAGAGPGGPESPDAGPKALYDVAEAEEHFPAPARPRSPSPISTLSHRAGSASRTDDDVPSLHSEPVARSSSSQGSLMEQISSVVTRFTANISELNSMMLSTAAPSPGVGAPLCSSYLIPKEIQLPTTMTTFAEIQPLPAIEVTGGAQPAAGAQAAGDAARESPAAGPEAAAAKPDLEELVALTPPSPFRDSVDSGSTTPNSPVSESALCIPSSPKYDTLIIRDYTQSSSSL
wild-type (WT) full-length human mGlu1 receptor, sequence (Q13255 19-1194): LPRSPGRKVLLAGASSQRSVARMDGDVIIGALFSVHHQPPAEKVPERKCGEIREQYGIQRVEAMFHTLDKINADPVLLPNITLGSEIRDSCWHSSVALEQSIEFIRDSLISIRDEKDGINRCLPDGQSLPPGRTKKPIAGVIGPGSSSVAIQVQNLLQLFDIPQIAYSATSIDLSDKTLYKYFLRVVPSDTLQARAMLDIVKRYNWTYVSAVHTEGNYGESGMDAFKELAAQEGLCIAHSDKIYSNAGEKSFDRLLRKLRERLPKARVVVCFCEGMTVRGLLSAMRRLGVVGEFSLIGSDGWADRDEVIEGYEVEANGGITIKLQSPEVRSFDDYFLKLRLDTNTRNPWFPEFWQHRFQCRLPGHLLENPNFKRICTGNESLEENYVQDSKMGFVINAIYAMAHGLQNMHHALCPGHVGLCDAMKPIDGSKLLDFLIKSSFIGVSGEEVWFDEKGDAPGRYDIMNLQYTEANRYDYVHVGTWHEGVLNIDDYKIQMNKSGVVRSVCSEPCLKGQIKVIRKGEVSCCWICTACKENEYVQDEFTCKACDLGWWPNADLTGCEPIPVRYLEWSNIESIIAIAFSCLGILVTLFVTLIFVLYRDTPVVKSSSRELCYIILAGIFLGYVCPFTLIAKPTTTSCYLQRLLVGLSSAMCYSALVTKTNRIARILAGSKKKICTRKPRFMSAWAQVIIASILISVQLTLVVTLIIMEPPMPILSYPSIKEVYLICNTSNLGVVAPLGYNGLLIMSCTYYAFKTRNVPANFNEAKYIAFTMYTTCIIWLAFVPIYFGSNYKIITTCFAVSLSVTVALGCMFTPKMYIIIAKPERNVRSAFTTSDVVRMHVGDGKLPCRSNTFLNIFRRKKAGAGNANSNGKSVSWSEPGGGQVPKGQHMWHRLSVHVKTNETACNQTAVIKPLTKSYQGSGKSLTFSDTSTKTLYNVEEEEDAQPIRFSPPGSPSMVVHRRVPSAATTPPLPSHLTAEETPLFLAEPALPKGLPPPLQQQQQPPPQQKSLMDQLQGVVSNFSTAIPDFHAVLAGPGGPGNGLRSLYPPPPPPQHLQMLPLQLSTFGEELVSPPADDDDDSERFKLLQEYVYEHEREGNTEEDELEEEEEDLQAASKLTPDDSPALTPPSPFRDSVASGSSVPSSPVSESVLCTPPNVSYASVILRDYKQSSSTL

Row | Ki (human mGlu1 receptor) [nM] | subtype selectivity (mGlu5) | mode of allosteric modulation [1] | SMILES | IC50 (mGlu1 [2]) [nM] | fold lower potency than FITM (mGlu1 [3])
1 | 2.5 | selectivity for mGlu1 over mGlu5 | full NAM | CC(C)Nc1cc(-c2csc(N(C)C(=O)c3ccc(F)cc3)n2)ncn1 [FITM, 4-fluoro-N-(4-(6-(isopropylamino)pyrimidin-4-yl)thiazol-2-yl)-N-methylbenzamide] | 5 | –
2 | – | – | – | CC(C)N(C)c1cc(-c2csc(N(C)C(=O)c3ccc(F)cc3)n2)ncn1 [compound 28] | 77 | approximately 10 fold
